Active and inactive are the calls of the source.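 How the source made its calls: active means normalized viability below 40% relative to DMSO and staurosporine controls, called cytotoxic; inactive means the rest.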
Tested on: ConA-stimulated mouse T cells viability, FDA flow cytometry, 24 h
Experiment: viability of concanavalin A-activated mouse T cells – cell-based, concanavalin A stimulation, cytotoxicity control for T cell immune modulator project (AID 504864)
Conditions: at 20 µM; hits give low values

SMILES	viability
CCOC(=O)c1c(N2C(=O)CC(Sc3ccccc3C(=O)O)C2=O)sc2c1CCCC2 (stereo not drawn)	94.2% (inactive)
Cc1cc(C)n(C(=O)c2sc3cc(F)ccc3c2Cl)n1	87.8% (inactive)
CCC(C(=O)Nc1ccccc1)c1ccccc1 (stereo not drawn)	104% (inactive)
COCCCN1CCc2[nH]c(=S)[nH]c(=O)c2C1	95.4% (inactive)
Cc1ccc(NC(=O)COC(=O)CCc2c[nH]c3ccccc23)c(C)c1	97.2% (inactive)
c1ccc(COc2ccc(OCCN3CCCCC3)cc2)cc1	112% (inactive)
COc1ccc(NC(=O)CC2C(=O)N(Cc3ccccc3)C(=S)N2CCN2CCOCC2)cc1 (stereo not drawn)	100% (inactive)
Cc1ccccc1C(=O)N1CCC(C(=O)Nc2ccc(C)c(S(=O)(=O)N3CCCCC3)c2)CC1	82.2% (inactive)
CCOc1ccc(-c2nc(N)ncc2-c2ccccc2)c(O)c1	83.1% (inactive)
CCOC(=O)c1c(C=O)c2ccccc2n1CC	91.6% (inactive)
COCc1c(C(=O)Nc2cccc(S(=O)(=O)N3CCCCC3)c2)oc2ccccc12	58.7% (inactive)
CCOC(=O)c1ccc(S(=O)(=O)N2CCN(C3CCCC3)CC2)cc1	90.7% (inactive)
Cc1sc2ncnc(NCC(C)(C)N3CCOCC3)c2c1C	101% (inactive)
O=C(NCCN1CCN(c2ccccc2)CC1)c1cccc(Br)c1	86.2% (inactive)
CC(C)(C)NC(=O)COc1ccc(CNCc2cccnc2)cc1	91.1% (inactive)
CCOc1ccc(CCNC(=O)CCS(=O)(=O)c2ccc(C)cc2)cc1OCC	85.5% (inactive)
CCOC(=O)c1ccc(NC(=O)CN2C(=O)NC3(CCCCCCC3)C2=O)cc1	91.1% (inactive)
O=C(CS(=O)(=O)Cc1ccccc1)N1CCc2ccccc21	106% (inactive)
Cc1ccccc1C(=O)NCC(=O)N1CCN(C/C=C/c2ccccc2)CC1	100% (inactive)
COc1ccc([N+](=O)[O-])cc1NC(=O)c1ccc(N(Cc2ccccc2C)S(C)(=O)=O)cc1	90.9% (inactive)
COc1ccc(S(=O)(=O)N2CCCCC2)cc1NC(=O)c1cnc(C)cn1	102% (inactive)
Cc1ccc(C(=O)NCCCN2CCOCC2)c(C)c1	96.3% (inactive)
O=C(OCCOc1cccc(Cl)c1)c1ccc(F)c(S(=O)(=O)N2CCOCC2)c1	85% (inactive)
O=C(NCCC1=CCCCC1)C(=O)NCC(c1ccco1)N1CCN(c2ccccc2F)CC1 (stereo not drawn)	73.6% (inactive)
COc1ccc(CNC(=O)c2cccnc2SC)cc1OC	75.5% (inactive)
COc1ccccc1CNC(=O)COc1ccc(C)cc1	98.7% (inactive)

SMILES	viability
CCCCOc1ccc(C(=O)NCC(=O)N2CCN(C(=O)c3ccco3)CC2)cc1	85.5% (inactive)
CN(CC(=O)Nc1cc(S(=O)(=O)N2CCCC2)ccc1Cl)Cc1ccc2c(c1)OCO2	78.3% (inactive)
Cc1ccc(Cn2c([N+](=O)[O-])cnc2C)cc1	110% (inactive)
O=C(c1ccc(N2C(=O)C3CC=C(Cl)CC3C2=O)cc1)N1CCCCC1 (stereo not drawn)	6.85%
O=C(O)C1CCC(Cn2c(SCc3cc(=O)n4cc(Cl)ccc4n3)nc3ccsc3c2=O)CC1 (stereo not drawn)	71.6% (inactive)
COc1ccccc1NS(=O)(=O)c1cc(NC(=O)CNC(=O)c2cc(C)cc(C)c2)ccc1C	111% (inactive)
CC1CCCCC1NC(=O)COC(=O)c1ccc2ncsc2c1 (stereo not drawn)	90.9% (inactive)
CCC1(C)NC(=O)N(CC(=O)N2N=C(c3ccccc3)CC2c2ccc(OC)cc2)C1=O (stereo not drawn)	93.6% (inactive)
COc1ccc(/C=C2\SC(=S)N(CCC(=O)N3CCOCC3)C2=O)cc1	78.4% (inactive)
Cc1ccc(S(=O)(=O)N2CCN(S(=O)(=O)N(C)C)CC2)c(C)c1	84.8% (inactive)
O=C(Cn1cc(C(F)(F)F)cc(Cl)c1=O)NCCc1ccc(Cl)cc1Cl	102% (inactive)
Cc1ccc(S(=O)(=O)N2CCN(C(=O)CNC(=O)c3ccc(Cl)cc3)CC2)cc1	33.2%
CCCCn1nc(C(=O)N2CCN(S(=O)(=O)c3ccccc3)CC2)c2ccccc2c1=O	98.2% (inactive)
Cc1cc(=O)oc2c3c(cc(OCC(=O)NCc4ccncc4)c12)OC(C)(C)CC3	106% (inactive)
COc1ccc(N2CC(C(=O)NC(C)C(=O)NCc3ccccc3OC)CC2=O)cc1 (stereo not drawn)	88.2% (inactive)
Cc1ccc(O)c(CCc2ccccc2)n1	96.7% (inactive)
CCN(CC)C(=O)N1CCN(S(=O)(=O)c2ccc(C)cc2)CC1	105% (inactive)
NC(=O)C1CCN(c2nc(-c3cc4ccccc4o3)cs2)CC1	88.8% (inactive)
Cc1ccc(N2CC(C(=O)NC3=NCCS3)CC2=O)cc1 (stereo not drawn)	93.6% (inactive)
CN1CCN(S(=O)(=O)c2ccc(C(=O)Nc3ccccc3)cc2)CC1	93.5% (inactive)
O=C(NNS(=O)(=O)c1ccc2ccccc2c1)c1cccs1	100% (inactive)
CC(=O)Nc1ccc(S(=O)(=O)NC2CCSc3ccccc32)cc1 (stereo not drawn)	98.5% (inactive)
Cc1cccc(NC(=O)C2CCN(S(=O)(=O)c3c(C)[nH]c(=O)[nH]c3=O)CC2)c1	96% (inactive)
O=C(NCc1cccnc1)C(=O)NCC(c1ccco1)N1CCN(c2ccccc2)CC1 (stereo not drawn)	101% (inactive)
CN(C)S(=O)(=O)c1cccc(-n2sc3ccccc3c2=O)c1	12.1%
CC(=O)c1ccc(-c2csc(N3CCC(C(N)=O)CC3)n2)cc1	91.6% (inactive)

SMILES	viability
COc1ccc(C2=Nc3cc(C)ccc3OC2)cc1	94.5% (inactive)
Cn1c(CNC(=O)CNC(=O)c2ccc(F)cc2)cc(=O)n(C)c1=O	96.3% (inactive)
CCN(CC)CCNC(=O)CCCNC(=O)Cn1cnc2sc(C)c(C)c2c1=O	98.7% (inactive)
Cc1ccc(OCCOC(=O)c2cc(S(=O)(=O)N3CCCCC3)ccc2N2CCOCC2)cc1	48.6% (inactive)
O=C(NCC1CCCCC1)c1ccc(Cl)c(S(=O)(=O)N2CCOCC2)c1	78.3% (inactive)
CCCc1nnc(NC(=O)c2ccc(S(=O)(=O)N(C)c3ccccc3OC)cc2)s1	89.7% (inactive)
COc1ccc(NC(=O)CSCC(=O)Nc2cccc(S(=O)(=O)N3CCCCCC3)c2)cc1	86.6% (inactive)
COc1cccc(NC(=O)Nc2ccc3nc(C)c(C)nc3c2)c1	100% (inactive)
Cc1ncc([N+](=O)[O-])n1Cc1cccc(F)c1	116% (inactive)
CCCNC(=O)c1nc2ncc(Br)cn2n1	101% (inactive)
COc1ccc(S(=O)(=O)N2CCCC2C(=O)Nc2ccc(C(C)=O)cc2)cc1 (stereo not drawn)	94.9% (inactive)
CCN(CC)S(=O)(=O)c1ccc(Cl)c(NC(=O)COC(=O)C2CCCCC2)c1	106% (inactive)
O=C1CC(c2nc3ccccc3[nH]2)CN1Cc1ccccc1 (stereo not drawn)	110% (inactive)
O=C(CC1=NCCNC(c2ccccc2)C1)c1ccccc1O (stereo not drawn)	75% (inactive)
COc1ccc(C(O)c2coc3ccc(O)c(CN(C)C)c23)cc1 (stereo not drawn)	88% (inactive)
CN1CCN(S(=O)(=O)c2cccc(C(=O)Nc3cc(C(F)(F)F)ccc3N3CCCCC3)c2)CC1	56.9% (inactive)
CN(C)S(=O)(=O)c1ccc(C(=O)NCCc2ccco2)cc1	91.8% (inactive)
COC(=O)c1ccccc1NC(=O)C1CCN(C(=O)c2cc(OC)cc(OC)c2)CC1	103% (inactive)
Cc1cc(Cl)c(OCCCSc2nc(C)cc(=O)[nH]2)c(Br)c1	103% (inactive)
CCOC(=O)C1CCCN(S(=O)(=O)c2ccc(F)c(C(=O)Nc3ccc(F)c(F)c3)c2)C1 (stereo not drawn)	74.5% (inactive)
CCOC(=O)N1CCN(C(=O)c2ccc(CS(=O)Cc3ccc(C)cc3)o2)CC1 (stereo not drawn)	98.2% (inactive)
CC(Sc1nc2ccccc2[nH]1)C(=O)NC1CCCCC1C (stereo not drawn)	101% (inactive)
CCOCC(=O)Nc1ccc(S(=O)(=O)N2CCC(c3nc4ccccc4[nH]3)CC2)cc1	94% (inactive)
O=C(CCC(=O)N1CCOCC1)NCc1cccc(C(F)(F)F)c1	98% (inactive)
COc1ccc(Nc2ccccc2N)cc1	21.9%
O=C(COC(=O)C12CC3CC(CC(Br)(C3)C1)C2)Nc1cccc(S(=O)(=O)N2CCOCC2)c1	96.9% (inactive)

Reference: PubChem BioAssay AID504864 (NMMLSC, 2011)
